Data published in patent US20130072714A1, “BIOBASED COMPOSITIONS OF DIAMMONIUM SUCCINATE, MONOAMMONIUM SUCCINATE AND/OR SUCCINIC ACID AND DERIVATIVES THEREOF” (BioAmber International S.à.r.l., priority 2011, published 2013).
“Also recorded” adds a separate entry of the source.

Test: Heated color test: SA plus 1,4-butanediol with trace glucose and/or alanine, 180° C., visual inspection
Assay type: physicochemical
Conditions: 1.0 gram 1,4-butanediol plus 0.5 gram SA, 2 hours
Experimental: Glass vials were charged with 1,4-butanediol, pure SA, and trace levels of either glucose, alanine, or both. The vials were heated at 180° C. for 2 hours and any color changes observed by visual inspection. [table]

Compound: C[C@H](N)C(=O)O [Alanine, alanine]
- color change on heating, single impurity (impurity 10 ppm): No color
- color change on heating, single impurity (impurity 100 ppm): No color
- color change on heating, single impurity (impurity 1000 ppm): Slight yellow

Compound: O=C(O)CCC(=O)O [SA, succinic acid]
- color change on heating, two impurities (glucose 5 ppm, alanine 5 ppm): No color
- color change on heating, two impurities (glucose 5 ppm, alanine 50 ppm): yellow color; also recorded: Slight
- color change on heating, two impurities (glucose 5 ppm, alanine 500 ppm): Slight
- color change on heating, two impurities (glucose 50 ppm, alanine 5 ppm): No color
- color change on heating, two impurities (glucose 50 ppm, alanine 50 ppm): Slight
- color change on heating, two impurities (glucose 50 ppm, alanine 500 ppm): Light
- color change on heating, two impurities (glucose 500 ppm, alanine 5 ppm): No color
- color change on heating, two impurities (glucose 500 ppm, alanine 50 ppm): Slight
- color change on heating, two impurities (glucose 500 ppm, alanine 500 ppm): Light
